Laboratory results reported in PubChem BioAssay (NCI).
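96-well plates; 48 h exposure; 5 concentrations. Endpoints by linear interpolation between flanking doses. Not reached: highest tested concentration assigned. Here, GI50 denotes the concentration required for 50% inhibition of growth. TGI marks complete inhibition of growth.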

Test system: MDA-MB-468 breast
Assay: growth of human tumour cells (NCI), 48 h

| Compound | GI50 [nM] | TGI [nM] |
| --- | --- | --- |
| COc1cccc(-c2nc(-c3ccc(NC(=O)C(C)C)cc3)[nH]c2-c2ccnc(Br)c2)c1 | 1890 | 5400 |
| COc1ccc(-c2nnc(COc3ccc(C(=O)/C=C/c4ccco4)cc3)o2)cc1 | 1890 | 4120 |
| Fc1cc2[nH]ncc2c2c3c(c(-c4cn[nH]c4)nc12)CCCC3 | 857 | 2580 |
| OC(c1cc(-c2ccc(C(F)(F)F)cc2)nc(-c2ccc(C(F)(F)F)cc2)c1)C1CCCCN1 (configuration not stated) | 1470 | 2820 |
| O=C(CSc1ccc(Cl)cc1)Nc1ccc(-c2nc3ccccc3s2)c(Cl)c1 | 4520 | 48500 |
| O=c1c2sccc2n(CC2COc3ccccc3O2)c(=O)n1O (configuration not stated) | 4610 | 57400 |
| Cn1cnc([N+](=O)[O-])c1S(=O)(=O)Oc1cccc2ccccc12 | 1850 | 3840 |
| COc1cc(/C=C/C(=O)c2cc(OC)c(OC)c(OC)c2)ccc1OCc1ccccc1 | 2150 | 7980 |
| CO[C@H]1/C=C(/C)CCC[C@H](C)[C@H](O)[C@@H](C)C(=O)C(C)(C)[C@@H](O)CC(=O)O[C@@H]1/C(C)=C/c1csc(C)n1 | < 10 | 46.3 |
| COc1ccc(/C=C(/C#N)n2nnc3cccc(F)c32)cc1 | 414 | 5120 |
| O=C(/C=C/c1ccncc1)c1cc(Cl)ccc1O | 18100 | 33000 |
| CCCCCCCC(=O)SCC/C=C/[C@@H]1CC(=O)NCc2cc(ccn2)C2=N[C@@](C)(CS2)C(=O)N[C@@H](C(C)C)C(=O)O1 | 55 | > 33300 |
| Nc1ncnc2c1nnn2C1OC(CO)C(O)C1O (configuration not stated) | 234 | 1260 |
| COc1ccc(-c2nnc(COc3ccc(NC(=O)Nc4cc(C(F)(F)F)cc(C(F)(F)F)c4)cc3F)o2)cc1 | 1550 | 5040 |
| O=C(/C=C/c1ccc(Cl)cc1)c1ccc(Nc2ccnc3cc(Cl)ccc23)cc1 | 43100 | > 100000 |
| CC(C)[C@H]1COC(=O)N1[C@@H]1C(=O)N([C@@H](CCC(=O)N2CCN(C3CCCC3)CC2)C(=O)N[C@@H]2CCCc3ccccc32)[C@@H]1/C=C/c1cccc(Br)c1 | 688 | 2120 |
